Here are results for 2 compounds from PMC7702137 (2020).

Assay [1] has as its system r(CCG)9 (RNA, repeat) CCGCCGCCGCCGCCGCCGCCGCCGCCG
Nature of the assay: SPR single cycle kinetics. The note with it: HBS-EP+ buffer, 25 °C.

In assay [2] the test system is r(CUG)9 (RNA, repeat) CUGCUGCUGCUGCUGCUGCUGCUGCUG
Nature of the assay: SPR single cycle kinetics. The note with it: 25 °C.

Consider `NCCCNc1nc(NC(=O)OCCCN)cc2c(-c3ccnc(N4CCNCC4)c3)cccc12`, for which, in assay [1] (highest concentration tested 1.0 μM), the binding result is reported as “weak”. In addition, in assay [2] (Na+ not printed for the running buffer (HBS-EP+; 500 mM NaCl only for immobilization), apparent, assumed 1:1 binding isotherm, 0.063-1.0 μM), the “K d(app)” value worked out at 1200 nM.

Regarding `NCCCNc1nc(NC(=O)OCCCNC(=O)CCNCCC(=O)NCCCOC(=O)Nc2cc3c(-c4ccnc(N5CCNCC5)c4)cccc3c(NCCCN)n2)cc2c(-c3ccnc(N4CCNCC4)c3)cccc12`, the binding result in assay [1] (highest concentration tested 0.1 μM) is reported as “weak”; in assay [2] (HBS-EP+ buffer, 6.3-100 nM, significant response from 6.3 nM, not fitted), “yes”.
